For nine molecules, TGI and GI50 results are on record in PubChem BioAssay (NCI).

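In this assay, cells in 96-well plates receive the compound at five concentrations for 48 hours. Endpoints are linearly interpolated between the surrounding concentrations. The concentration for 50% growth inhibition is given as GI50. TGI is the concentration that stops growth completely.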

Among the test systems are OVCAR-4 ovarian; U251 CNS; MALME-3M melanoma; UACC-62 melanoma; DU-145 prostate; NCI-H460 lung; UO-31 renal; HOP-92 NSCLC; OVCAR-3 ovarian; MDA-MB-231 breast.
Common to all, as to assay: NCI tumour cell line growth inhibition, 48 h

Consider `CCn1c(=N)sc2nc3ccccc3n2c1=O`, for which the TGI in the assay on OVCAR-4 ovarian, with U251 CNS, with MALME-3M melanoma, with UACC-62 melanoma, in the assay on DU-145 prostate and with NCI-H460 lung was more than 100 µM each time. Besides, the TGI is 33.3 µM with UO-31 renal, more than 100 µM in the assay on HOP-92 NSCLC, more than 100 µM in the assay with OVCAR-3 ovarian and more than 100 µM in the assay on MDA-MB-231 breast.

On to `COc1ccc2c(c1)O/C(=C\c1cccc(OCC(=O)Nc3nc(C)c(C)s3)c1)C2=O`, for which the GI50 in the assay on OVCAR-4 ovarian was 12.8 µM; in the assay on U251 CNS, 1620 nM; with MALME-3M melanoma, 1800 nM; with UACC-62 melanoma it was 16500 nM; in the assay with DU-145 prostate it was 189 nM; in the assay on NCI-H460 lung it was 11600 nM. Also, the GI50 is 547 nM with UO-31 renal, 1320 nM with HOP-92 NSCLC, 448 nM with OVCAR-3 ovarian and 950 nM in the assay on MDA-MB-231 breast. Besides, the TGI in the assay with OVCAR-4 ovarian is more than 100 µM; with U251 CNS, 3.08 µM; with MALME-3M melanoma, 3.92 µM; in the assay with UACC-62 melanoma, more than 100 µM; in the assay on DU-145 prostate, 0.404 µM; with NCI-H460 lung it was more than 100 µM. Also, the TGI in the assay on UO-31 renal is 1.02 µM; with HOP-92 NSCLC it was 3.09 µM; with OVCAR-3 ovarian, 1.05 µM.

Consider `Cc1cccc(Nc2cc(Cl)nc(SCC(=O)O)n2)c1C`, for which the TGI in the assay on OVCAR-4 ovarian, in the assay on U251 CNS, in the assay with MALME-3M melanoma, in the assay with UACC-62 melanoma, with DU-145 prostate and with NCI-H460 lung was more than 100 µM each time. Further, the TGI with HOP-92 NSCLC, in the assay on OVCAR-3 ovarian and with MDA-MB-231 breast was more than 100 µM each time.

With `COc1cccc(NC(=O)c2sc3nc4c(cc3c2N)C(O)CCC4)c1` (centres undefined), the GI50 is 0.775 µM in the assay with OVCAR-4 ovarian; 244 nM in the assay with U251 CNS; 150 nM in the assay on UACC-62 melanoma; 292 nM in the assay with DU-145 prostate; 324 nM in the assay with NCI-H460 lung; 607 nM in the assay on UO-31 renal. For the same molecule, the GI50 was 169 nM with HOP-92 NSCLC, 106 nM in the assay on OVCAR-3 ovarian and 448 nM with MDA-MB-231 breast. In addition, the TGI is more than 100 µM with OVCAR-4 ovarian; more than 51.6 µM with U251 CNS; more than 100 µM in the assay with UACC-62 melanoma; more than 29.2 µM in the assay on DU-145 prostate; more than 100 µM in the assay on NCI-H460 lung; more than 100 µM with UO-31 renal. Moreover, the TGI in the assay with HOP-92 NSCLC is 23 µM; in the assay with OVCAR-3 ovarian, 0.515 µM; with MDA-MB-231 breast it was more than 100 µM.

`COc1cc(-c2cc3ncccc3c3[nH]c(=O)c4cccnc4c23)cc(OC)c1OC`: the GI50 in the assay on OVCAR-4 ovarian is 8.87 µM; in the assay on U251 CNS it was 603 nM; in the assay with MALME-3M melanoma, 16200 nM; with UACC-62 melanoma, 496 nM; in the assay with DU-145 prostate it was 907 nM; with NCI-H460 lung, 433 nM. Besides, the GI50 with UO-31 renal is 1090 nM; in the assay with HOP-92 NSCLC, 12200 nM; in the assay with OVCAR-3 ovarian, 329 nM; in the assay with MDA-MB-231 breast, 1540 nM. For the same molecule, the TGI in the assay on OVCAR-4 ovarian was more than 100 µM; in the assay on U251 CNS, more than 100 µM; in the assay on MALME-3M melanoma, more than 100 µM; with UACC-62 melanoma, 30.3 µM; with DU-145 prostate, more than 100 µM; in the assay with NCI-H460 lung it was more than 100 µM. In addition, the TGI in the assay with UO-31 renal, in the assay on HOP-92 NSCLC, with OVCAR-3 ovarian and in the assay with MDA-MB-231 breast was more than 100 µM throughout.

For the molecule `Cc1nc(Sc2nc3ccc([N+](=O)[O-])cc3s2)sc1C`, the GI50 was 1.35 µM in the assay on OVCAR-4 ovarian; 1990 nM in the assay with U251 CNS; 1400 nM in the assay on MALME-3M melanoma; 1220 nM in the assay with UACC-62 melanoma; 3990 nM in the assay on DU-145 prostate; 894 nM with NCI-H460 lung. Moreover, the GI50 was 1490 nM in the assay with UO-31 renal, 2540 nM in the assay with HOP-92 NSCLC, 1350 nM with OVCAR-3 ovarian and 1840 nM in the assay with MDA-MB-231 breast. The TGI with OVCAR-4 ovarian worked out at 9.81 µM; in the assay with U251 CNS, 7.9 µM; in the assay with MALME-3M melanoma, 3.9 µM; in the assay with UACC-62 melanoma, 3.49 µM; in the assay with DU-145 prostate it was 15.4 µM; in the assay with NCI-H460 lung it was 6.26 µM. The TGI was determined as 4.17 µM in the assay on UO-31 renal, 7.55 µM in the assay with HOP-92 NSCLC, 3.28 µM with OVCAR-3 ovarian and 11 µM with MDA-MB-231 breast.

Consider `OC(COc1ccccc1)CN1CCCCC1` (centres undefined), for which the TGI in the assay with OVCAR-4 ovarian, in the assay with U251 CNS, in the assay on MALME-3M melanoma, in the assay on UACC-62 melanoma, in the assay on DU-145 prostate and in the assay on NCI-H460 lung was more than 100 µM throughout. The TGI in the assay with UO-31 renal, with HOP-92 NSCLC, with OVCAR-3 ovarian and in the assay on MDA-MB-231 breast was more than 100 µM throughout.

Consider `O=C1Nc2ccccc2/C1=C/c1cn(CC(O)Cn2cc(/C=C3\C(=O)Nc4ccccc43)c3ccccc32)c2ccccc12` (centres undefined), for which the GI50 with U251 CNS is 1520 nM; with MALME-3M melanoma, 1510 nM; in the assay on UACC-62 melanoma, 1640 nM; with DU-145 prostate it was 1550 nM; in the assay on NCI-H460 lung, 488 nM; in the assay on UO-31 renal, 1290 nM. The figures for the GI50 in the assay with HOP-92 NSCLC, in the assay with OVCAR-3 ovarian and with MDA-MB-231 breast were 1800 nM, 1650 nM and 1270 nM, respectively. The TGI with U251 CNS is 2.92 µM; in the assay with MALME-3M melanoma, 3.26 µM; with UACC-62 melanoma, 3.16 µM; in the assay with DU-145 prostate, 2.95 µM; in the assay on NCI-H460 lung, 1.88 µM; in the assay on UO-31 renal, 2.94 µM. In addition, the TGI in the assay with HOP-92 NSCLC was 4.15 µM; in the assay on OVCAR-3 ovarian, 3.3 µM; in the assay with MDA-MB-231 breast, 2.71 µM.

`O=C(Nc1ccc2c(c1)OCCO2)C(=O)c1c[nH]c2ccccc12`: the GI50 in the assay on OVCAR-4 ovarian was 3.88 µM; with U251 CNS, 1630 nM; with MALME-3M melanoma, 10500 nM; in the assay with UACC-62 melanoma, 1430 nM; in the assay on DU-145 prostate it was 1950 nM; with NCI-H460 lung it was 1300 nM. In addition, the GI50 is 5110 nM in the assay on UO-31 renal, 1340 nM in the assay on HOP-92 NSCLC, 1290 nM in the assay on OVCAR-3 ovarian and 1370 nM in the assay on MDA-MB-231 breast. For the same molecule, the TGI in the assay with OVCAR-4 ovarian was more than 100 µM; in the assay with U251 CNS, 15.9 µM; with MALME-3M melanoma it was more than 100 µM; in the assay with UACC-62 melanoma, more than 100 µM; in the assay on DU-145 prostate it was 11.8 µM; in the assay on NCI-H460 lung it was more than 100 µM. Further, the TGI is more than 71.4 µM with UO-31 renal, 11.1 µM in the assay with HOP-92 NSCLC, 4.68 µM in the assay on OVCAR-3 ovarian and 14.7 µM with MDA-MB-231 breast.
